Several values for one entry are separate records, joined by “and”; a condition that tells them apart may be missing. Equal values may be shown once. Where a name gives a salt, the structure may show the parent alone. Read-outs that look alike come from different tables or passages of the source.
Tests used:
[1] = test system: durch Reserpin induzierten Hypothermie; test: Antireserpine activity (reserpine-induced hypothermia); type: in vivo, Maus
Description: Zur Zeit 0 erhalten die Mäuse intraperitoneal Reserpin (2,5 mg/kg).
4 Stunden danach, wenn die Hypothermie genügend stark erscheint (30 bis 33°C), verabreicht man die verschiedenen zu untersuchenden Verbindungen i.p. oder p.o. Alle 30 Minuten über einen Zeitraum von 2 Stunden mißt man die Rektaltemperatur mit einer auf konstante Tiefe eingeführten, ein Thermoelement tragenden Sonde. Die Rektaltemperatur der mit verschiedenen erfindungsgemäßen Verbindungen behandelten Tiere wird mit der Temperatur einer Kontrollgruppe verglichen, die destilliertes Wasser auf die gleiche Weise wie die untersuchten Verbindungen erhält.
Die Akinesie (fehlende Bewegungen) und Ptose (Öffnungsgrad des Augenlids von 0 bis 4 nach Rubin u.a 1957) werden ebenfalls alle 30 Minuten über einen Zeitraum von 2 Stunden bewertet.
Die eine antidepressive Aktivität besitzenden Produkte wirken der durch Reserpin induzierten Hypothermie entgegen. Für jede Dosis der verabreichten Verbindung berechnet man die prozentuale Hemmung der Hypothermie.

Apomorphin 16 mg/kg = test: Antiapomorphine activity (apomorphine 16 mg/kg s.c., hypothermia); type: in vivo, Maus
Description: Zur Zeit 0 nach Ausgleich der Reaktaltemperaturen werden die Mäuse (6 pro Gruppe) in deren Beobachtung gestattende Einzelkäfige (11 x 3,5 x 4 cm) eingeetzt. 30 Minuten nach i.p. bzw. p.o. Verabreichung der Testsubstanz erhalten sie Apomorphin subkutan in einer Dosis von 16 mg/kg. Die Rektaltemperatur wird 30 Minuten nach dem Apomorphin gemessen. Die Kontrolltiere erhalten destilliertes Wasser statt der zu untersuchenden Verbindungen. Die bei diesen Kontrolltieren, die 16 mg/kg Apomorphin erhalten haben, beobachtete Hypothermie liegt im Durchschnitt bei 33°C. Für jede Verbindungsdosis berechnet man die prozentuale Hemmung der Hypothermie.

Motoraktivität = test: Actimetry (motor activity, photocell actimeter); type: in vivo, Maus; settings: mouse; direction of change of motor activity
Text: Die Motoraktivität wird mittels Photozellenaktimetern bestimmt (Boissier und Simon, Arch. Int. Pharmacodyn. 1965, 158, 212-221).
Die Mäuse (10 oder ein Vielfaches von 10 pro Gruppe) werden unmittelbar nach i.p. Verabreichung der zu untersuchenden Verbindungen in das Aktimeter eingesetzt. Die Motoraktivität wird danach bis zur 60. Minute gemessen. De Zähler werden nach 30 Minuten abgelesen und dann auf 0 zurückgestellt und im Verlauf von 30 Minuten alle 10 Minuten abgelesen.
Die Beweglichkeit der mit den verschiedenen Verbindungen behandelten Tiere wird mit derjenigen einer destilliertes Wasser erhaltenden Kontrollgruppe verglichen.
Die eine psychostimulierende Aktivität besitzenden Produkte verursachen eine Zunahme der Beweglichkeit.

Toxizität des Yohimbins = test: Potentiation of yohimbine toxicity; type: in vivo, Maus; settings: for minimal effective dose: Mus musculus, ip; for Erste wirksame Dosis Yohimbin: mouse, i.p.
Description: Wirkung auf die Toxizität des Yohimbins
Zur Zeit 0 erhalten die Mäuse entweder destilliertes Wasser oder verschiedene zu untersuchende Verbindungen i.p. 30 Minuten danach verabreicht man ihnen subkutan eine infratoxische Dosis von 25 mg/kg Yohimbinchlorhydrat.
Die Mortalität wird jede Stunde über einen Zeitraum von 4 Stunden verfolgt und dann nach 24 Stunden notiert.
Die eine antidepressive Aktivität besitzenden Produkte verursachen eine Potenzierung der Toxizität des Yohimbins.

Maus [2] = test: Hot plate test (licking and jumping), analgesia; type: in vivo
Description: Heizplattentest: Lecken und Springen, wie von Jacob und Blozovski beschrieben (Arch. Int. Pharmacodyn. 133, 296-209, 1961).
Die in Sekunden ausgedrückten Reaktionszeiten auf einer Heizplatte werden unter Berücksichtigung des Leckens der Vorderpfoten und Springen des Tieres als Kriterien bewertet. Die beiden Reaktionen werden am selben, anfänglich untrainierten Tier mit einer maximalen Ansprechzeit (Obergrenze) von 240 Sekunden beobachtet. Die Temperatur der Platte wird auf 56,6°C gehalten.
Morphin als positive Kontrolle wird subkutan und die übrigen Substanzen (mg/kg) werden intraperitoneal 30 Minuten vor dem Test verabreicht. Positives Ansprechen zeigt sich in einer Zunahme der Reaktionszeit.
Wird der schadensverhütenden Wirkung eine Substanz durch Naloxon entegengewirkt, so kann man schließen, daß die Substanz tatsächlich eine analgetische Wirkung besitzt.

L-5-Hydroxytryptophan = test: Potentiation of L-5-hydroxytryptophan effects (head twitches, tremor); type: in vivo, Maus; settings: mouse, 1 mg/kg i.p., 30 min before L-5 HTP 4 mg/kg i.p.
Description: L-5 HTP induziert an der Maus ruckartige Bewegungen des Kopfes (Kopfzuckungen). Die zu untersuchenden Substanzen werden den Tieren (10 Mäuse pro Dosis) intraperitoneal 30 Minuten vor dem L-5 HTP (4 mg/kg intraperitoneal) verabreicht. Die ruckartigen Kopfbewegungen und der Tremor werden 1 Minutre lang alle 10 Minuten im Verlauf einer Stunde bewertet. Desimipramin und Indalpin sind die Kontrol-(Vergleichs-)verbindungen. Ein antidepressiver Effekt zeigt sich durch eine Zunahme der ruckartigen Kopfbewegungen und des Tremors.

Maus [3] = test: Tail suspension test; type: in vivo; settings: ip; mouse, i.p.; footnote of Tabelle 1; read-out: tail suspension test= positiv ab
Text: Schwanzaufhängungstest an der Maus wie von Stéru u.a. beschrieben (Psychopharmacology 85, 367-370, 1985).
Die Substanzen werden intraperitoneal 30 Minuten vor dem Test verabreicht und die Tiese isoliert (10 Mäuse pro Dosis).
Man bewertet die Dauer der Unbeweglichkeit, ausgedrückt in Sekunden über die 6 Minuten des Tests. Man untersucht auf eine Verkürzung dieser Unbeweglichkeitszeit.

[4] = Mus musculus, ip, read-out: Erste wirksame Dosis Reserpin, mouse, i.p., only or lowest value of the cell
[5] = Mus musculus, ip, read-out: Erste wirksame Dosis Apomorphin 16 mg/kg, mouse, i.p., only or lowest value of the cell
[6] = read-out: Erste wirksame Dosis Yohimbin, mouse, i.p., only or lowest value of the cell
[7] = mouse, i.p., only or lowest value of the cell
[8] = only or lowest value of the cell
[9] = ip, mouse, i.p., only or lowest value of the cell, read-out: Erste wirksame Dosis Reserpin
[10] = ip, mouse, i.p., only or lowest value of the cell, read-out: Erste wirksame Dosis Apomorphin 16 mg/kg
[11] = mouse, reaction time, 8 mg/kg i.p., plate 56,6°C
[12] = Mus musculus, read-out: Erste wirksame Dosis Apomorphin 16 mg/kg, mouse, further value in the same cell, route not stated (lowest = i.p.; p.o. also tested)
[13] = mouse, Tabelle 5a, Naloxon alone 0,5 mg/kg

Clc1ccc(C2CNCCC2c2ccccc2)cc1 (stereo not drawn) [8 (Base), trans-3-(4-Chlorphenyl)-4-phenylpiperidin]
minimal effective dose [1, 4]: 8 mg/kg | minimal effective dose (Apomorphin 16 mg/kg; [5]): 16 mg/kg | Aktimetrie (Motoraktivität): ↘

Clc1ccc(C2CNCCC2c2ccccc2)cc1Cl (stereo not drawn) [Beispiel 13, trans-3-(3,4-Dichlorphenyl)-4-phenyl-piperidin-maleinat]
minimal effective dose [1, 4]: 8 mg/kg | minimal effective dose (Apomorphin 16 mg/kg; [5]): 4 mg/kg | minimal effective dose (Toxizität des Yohimbins; [6]): 16 mg/kg | Aktimetrie (Motoraktivität): ↘

Clc1ccc([C@@H]2CCNC[C@H]2c2ccccc2)cc1Cl [15 (Base)]
Erste wirksame Dosis Reserpin [1, 7]: 0,5 mg/kg | Erste wirksame Dosis Apomorphin 16 mg/kg (Apomorphin 16 mg/kg; [7]): 0,5 mg/kg | Erste wirksame Dosis Yohimbin (Toxizität des Yohimbins; [8]): 4 mg/kg | Aktimetrie (Motoraktivität): ↗

CC(=O)Oc1ccc([C@@H]2CCNC[C@H]2c2ccccc2)cc1 (racemic) [Beispiel 11, trans-4-(4-Acetoxyphenyl)-3-phenylpiperidinchlorhydrat]
minimal effective dose [1, 9]: 4 mg/kg | minimal effective dose (Apomorphin 16 mg/kg; [10]): 1 mg/kg | minimal effective dose (Toxizität des Yohimbins; [6]): 16 mg/kg

Cc1ccc([C@@H]2CCNC[C@H]2c2ccccc2)cc1 (relative stereo) [10 (HCl-Salz), trans-4-(4-Methylphenyl)-3-phenylpiperidin]
minimal effective dose ([1]; Mus musculus, read-out: Erste wirksame Dosis Reserpin, mouse, further value in the same cell, route not stated (lowest = i.p.; p.o. also tested)): 16 mg/kg | Erste wirksame Dosis Reserpin [1, 7]: 4 mg/kg | Erste wirksame Dosis Apomorphin 16 mg/kg (Apomorphin 16 mg/kg; [7]): 16 mg/kg | Aktimetrie (Motoraktivität): ↘

c1ccc([C@@H]2CCNC[C@H]2c2ccccc2)cc1 (relative stereo) [21 (HCl-Salz), trans-3,4-Diphenylpiperidin]
Erste wirksame Dosis Reserpin [1, 7]: 4 mg/kg | Erste wirksame Dosis Apomorphin 16 mg/kg (Apomorphin 16 mg/kg; [7]): 4 mg/kg | Erste wirksame Dosis Yohimbin (Toxizität des Yohimbins; [8]): 16 mg/kg | Aktimetrie (Motoraktivität): ↗

c1ccc2c(CCC3CCNCC3)c[nH]c2c1 [Indalpin, reference compound]
Pfotenlecken (Maus [2]; [11]): 8,4 ± 1,2 p < 0,02 Sekunden | Sprünge (Maus [2]; [11]): 132 ± 12 p ± 0,01 Sekunden | Tremor (L-5-Hydroxytryptophan): 2,0 ± 0,7 | ruckartige Kopfbewegungen (L-5-Hydroxytryptophan): 4,1 ± 0,7 p < 0,01

Oc1ccc([C@@H]2CCNC[C@H]2c2ccccc2)cc1 (racemic) [7 (1.Stufe), trans-4-(4-Hydroxyphenyl)-3-phenylpiperidin-bromhydrat]
minimal effective dose [1, 4]: 32 mg/kg | minimal effective dose (Apomorphin 16 mg/kg; [5]): 0.5 mg/kg | minimal effective dose (Toxizität des Yohimbins; [6]): 4 mg/kg | minimal effective dose (Toxizität des Yohimbins; read-out: Erste wirksame Dosis Yohimbin, mouse, further value in the same cell, route not stated (lowest = i.p.)): 16 mg/kg | Aktimetrie (Motoraktivität): ↘

Cc1ccc([C@@H]2CCNC[C@H]2c2ccccc2)cc1 (relative stereo) [10 (Base), trans-4-(4-Methylphenyl)-3-phenylpiperidin]
Erste wirksame Dosis Reserpin [1, 7]: 16 mg/kg | minimal effective dose (Apomorphin 16 mg/kg; [5]): 16 mg/kg | minimal effective dose (Apomorphin 16 mg/kg; [12]): 32 mg/kg | minimal effective dose (Toxizität des Yohimbins; [6]): 16 mg/kg | Aktimetrie (Motoraktivität): ↘

Clc1ccc(C2CNCCC2c2ccccc2)cc1 (stereo not drawn) [8 (HCl-Salz), trans-3-(4-Chlorphenyl)-4-phenylpiperidin]
Erste wirksame Dosis Reserpin [1, 7]: 4 mg/kg | Erste wirksame Dosis Apomorphin 16 mg/kg (Apomorphin 16 mg/kg; [7]): 8 mg/kg | minimal effective dose (Toxizität des Yohimbins; [6]): 16 mg/kg | Aktimetrie (Motoraktivität): ↘

COc1ccc([C@@H]2CCNC[C@H]2c2ccccc2)cc1 (racemic) [Beispiel 2, trans-4-(4-Methoxyphenyl)-3-phenylpiperidinchlorhydrat]
minimal effective dose [1, 9]: 4 mg/kg | minimal effective dose (Apomorphin 16 mg/kg; [10]): 1 mg/kg | minimal effective dose (Apomorphin 16 mg/kg; mouse, further value in the same cell, route not stated (lowest = i.p.; p.o. also tested), read-out: Erste wirksame Dosis Apomorphin 16 mg/kg): 2 mg/kg | Aktimetrie (Motoraktivität): ↘ | minimal effective dose (Maus [3]): ≥ 8 mg/kg

C=CCN1CC[C@]23c4c5ccc(O)c4O[C@H]2C(=O)CC[C@@]3(O)[C@H]1C5 [Naloxon, reference compound]
Pfotenlecken (Maus [2]; [13]): 5,5 ± 0,3 Sekunden and 5,2 ± 0,3 Sekunden | Sprünge (Maus [2]; [13]): 63 ± 6 Sekunden and 67 ± 5 Sekunden

CN1CC[C@]23c4c5ccc(O)c4O[C@H]2[C@@H](O)C=C[C@H]3[C@H]1C5 [Morphin, reference compound]
Pfotenlecken (Maus [2]; in vivo, sc, 2 mg/kg): 8,1 ± 0,6 p < 0,01 Sekunden | Sprünge (Maus [2]; in vivo, sc, 2 mg/kg): 158 ± 17 p < 0,01 Sekunden

Clc1ccc([C@@H]2CCNC[C@H]2c2ccccc2)cc1 [Beispiel 18]
minimal effective dose [1, 4]: 0.5 mg/kg | minimal effective dose (Apomorphin 16 mg/kg; [5]): 0.5 mg/kg | minimal effective dose (Apomorphin 16 mg/kg; [12]): 2 mg/kg | minimal effective dose (Toxizität des Yohimbins; [6]): 1 mg/kg | Aktimetrie (Motoraktivität): ↗
